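Results reflect a 48-hour exposure of cells in 96-well plates to compound at five concentrations. GI50 = concentration required for 50% inhibition of growth. TGI: concentration producing complete growth inhibition.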
How the values were obtained:
Assay in all cases: growth of human tumour cells (NCI), 48 h
[1] = system: CCRF-CEM leukemia
[2] = system: NCI-H23 lung
[3] = system: T-47D breast
[4] = system: SF-539 CNS
[5] = system: HCT-15 colon
[6] = system: SF-268 CNS
[7] = system: OVCAR-4 ovarian
[8] = system: OVCAR-5 ovarian
[9] = system: DLD-1 colon
[10] = system: LXFL 529 NSCLC

Structure (SMILES)	GI50 [1] [µM]	TGI [1] [µM]	GI50 [2] [µM]	TGI [2] [µM]	GI50 [3] [µM]	TGI [3] [µM]	GI50 [4] [µM]	TGI [4] [µM]	GI50 [5] [µM]	TGI [5] [µM]	GI50 [6] [µM]	TGI [6] [µM]	GI50 [7] [µM]	TGI [7] [µM]	GI50 [8] [µM]	TGI [8] [µM]	TGI [9] [µM]	TGI [10] [µM]
COc1cc(-c2cc(/C=C/C(=O)c3ccc4c(c3)OCO4)[nH]n2)cc(OC)c1OC	1.57	5.96	20.2	> 100	2.51	17	2.07	5.73	2.12	7.19	2.97	14.5	3.8	> 100	3.37	93.5		
COc1ccc(CN2C(=O)C(Cc3cc(OC)c(OC)c(C)c3OC)N(C(=O)OC(C)C)C(=O)/C2=C/c2cc(OC)c(OC)c(C)c2OC)cc1 (configuration not stated)		> 100		> 100				> 100				> 100		> 100		> 100	> 100	> 100
O=C(O)CNC(=O)c1ccccc1O		> 100		> 100		> 100		> 100		> 100		> 100		> 100		> 100		
C#CC[C@@H]1C[C@]2(C)[C@H]3CC[C@@H]4[C@H]5[C@H](C(=C)C)CC[C@]5(C(=O)O)CC[C@@]4(C)[C@]3(C)CC[C@H]2C(C)(C)[C@H]1O	2.36	9.02	2.38	6.95	1.79	4.66	2.67	7.88	1.89	6.61	2.81	10.1	1.93	3.83	3.07	11.6		
COc1ccc2c(CC(=O)O)cc(=O)oc2c1		> 100		> 100		> 100		> 100		> 100		> 100		> 100		> 100		
CCOC(=O)c1c[nH]c2c(OCc3ccccc3)c3ccccc3c(O)c2c1=O	5.73	> 100	6.75	28.6	18.5	69.6	2.53	11.2	11.1	> 100	12.9	50.7	54.3	> 100	54.7	> 100		
Cc1cc2c(cc1C)N1Cc3c(ccc(C)c3C)N(C2)C1 (tested in a mixture with another compound)		> 100		> 100				> 100				> 100		> 100			> 100	> 100
C(=N/Nc1ncnc2nc[nH]c12)/c1ccccn1	0.227	> 100	2.91	> 100	0.308	> 100	1.3	5.72	1.11	> 100	0.342	> 23.7	0.3	> 100	1.02	> 100		
CC(C)(C)C(=O)OCOP(=O)(OCOC(=O)C(C)(C)C)C1CCCN(OC(=O)c2ccccc2)C1=O (configuration not stated)	0.643	29.7	1.51	9.74	1.38	16.7	3.72	18.9	1.28	39.9	1.86	61.7	3.56	> 100	4.1	> 100		
O=c1cc2n(c(=O)[nH]1)C1OC(C(O)C1O)[C@H]2CCO (some centres not stated)		> 100		> 100				> 100				> 100		> 100		> 100	> 100	> 100
C=CCCC(O)c1ccc(C(O)CCCCCCCCCCCC)o1 (configuration not stated)	18.4	> 100	19.3	34.7	34.3	> 100	19.7	37.5	16.2	31.6	> 100	> 100	30.9	92.9	21.5	41.4		
CC(=O)Oc1ccc2ccc(=O)oc2c1OC(C)=O		46.1		> 100		> 100		> 100		> 100		> 100		> 100		> 100		
O=C(CCc1nnc(-c2c(Cl)cccc2Cl)o1)c1nc2ccccc2[nH]1	4.86	66	3.23	63.2	3.34	60	10.5	39.6	5.13	48.6	7.29	46.6	5.93	> 100	7.82	> 100		
O=C(Nc1ncc(Cc2ccccc2)s1)c1ccc2c(c1)OCCO2	0.0484	> 100	0.0679	> 100	0.0523	> 100	0.0283	0.177	0.0385	> 100	0.459	> 100	0.561	> 100	0.096	> 100		
CCOC(=O)C1=C(N)Oc2c(sc3c(C)cccc23)C1c1ccc(Cl)cc1 (configuration not stated)	3.65	24.1	2.5	10.5	2.79	18.8	1.8	5.57	2.02	10.6	6.13	22.4	6.92	21	4.03	15.7		
CC(C)c1ccc2c(N=Nc3ccc(S(N)(=O)=O)cc3)c(O)[nH]c2c1	> 25	> 25	11.1	> 25	> 15.3	> 25	5.56	> 25	> 22.6	> 25	7.52	> 20.2	> 25	> 25	> 25	> 25		
